{"source": "patent US12678479B2", "about": "“Pharmaceutical compositions comprising teixobactin” (priority 2018, dated 2026)", "origin": "cited, not measured here", "tested_on": "MRSA ATCC 33591", "conditions": "comparison value", "data": [{"smiles": "CN[C@H](CC(C)C)C(=O)N[C@H]1C(=O)N[C@@H](CC(N)=O)C(=O)N[C@H]2C(=O)N[C@H]3C(=O)N[C@H](C(=O)N[C@H](C(=O)O)c4cc(O)cc(O)c4-c4cc3ccc4O)[C@H](O[C@H]3C[C@](C)(N)[C@@H](O)[C@H](C)O3)c3ccc(c(Cl)c3)Oc3cc2cc(c3O[C@@H]2O[C@H](CO)[C@@H](O)[C@H](O)[C@H]2O[C@H]2C[C@](C)(NCc3ccc(-c4ccc(Cl)cc4)cc3)[C@@H](O)[C@H](C)O2)Oc2ccc(cc2Cl)[C@H]1O", "note": "[Orbactiv, oritavancin]", "values": [{"measurement": "effective dose", "value": "4 to 5", "unit": "mg/kg"}]}]}
